{"source": "patent US12290520B2", "about": "“Methods of use of emulsion formulations of aprepitant” (Heron Therapeutics, Inc., priority 2014, dated 2025)", "assay": "Pharmacokinetics of aprepitant emulsion vs fosaprepitant solution, intravenous", "format": "in vivo, male Sprague-Dawley rats", "conditions": "rat, equivalent to 14 mg/kg aprepitant", "procedure": "The pharmacokinetics of an aprepitant emulsion prepared according to Example 1 was determined. Two groups of six male Sprague-Dawley rats each were injected intravenously with, respectively, fosaprepitant in solution or aprepitant emulsion prepared according to Example 1. All drugs were administered at an effective concentration equivalent to 14 mg/kg aprepitant. Blood from all rats was collected at the appropriate time intervals and processed to plasma by centrifugation. Plasma samples were analyzed by LC-MS/MS for aprepitant and fosaprepitant, as appropriate. A plasma concentration versus time curve of aprepitant for the emulsion described in Example 1 and for fosaprepitant is presented in FIG. 2 (fosaprepitant in solution, ●; aprepitant emulsion, ▴). The curves indicate the initial aprepitant level reached immediately after injection of the aprepitant emulsion was almost 3 times higher than the initial aprepitant level reached immediately after injection of the fosaprepitant solution."}
{"smiles": "C[C@@H](O[C@H]1OCCN(Cc2nc(O)n(P(=O)(O)O)n2)[C@H]1c1ccc(F)cc1)c1cc(C(F)(F)F)cc(C(F)(F)F)c1", "note": "[fosaprepitant]", "values": [{"measurement": "Plasma levels of aprepitant by the 3-hour time point, emulsion vs fosaprepitant solution", "result": "essentially the same"}]}
